Reference: patent US20260028365A1 (BIOGEN MA INC., priority 2022, published 2026)
Like-named read-outs stand apart in the source and are kept apart here.

Assays:
JH2 domain of human Tyk2 = JH2 domain of human Tyk2 (Homo sapiens (Human), UniProt P29597); assay: JH2 Biochemical Assay (TR-FRET probe displacement); type: binding
Tyk2 = Tyk2 (Homo sapiens (Human), UniProt P29597); assay: pSTAT4 Cell Assay (MSD, NK92 cells); type: cell-based
[1] = TR-FRET probe displacement, JH2 domain of human Tyk2
[2] = JH2 domain of human Tyk2, TR-FRET probe displacement
[3] = TR-FRET probe displacement, JH2 domain

Tyk2, sequence (P29597 whole entry, the tested form may be a part): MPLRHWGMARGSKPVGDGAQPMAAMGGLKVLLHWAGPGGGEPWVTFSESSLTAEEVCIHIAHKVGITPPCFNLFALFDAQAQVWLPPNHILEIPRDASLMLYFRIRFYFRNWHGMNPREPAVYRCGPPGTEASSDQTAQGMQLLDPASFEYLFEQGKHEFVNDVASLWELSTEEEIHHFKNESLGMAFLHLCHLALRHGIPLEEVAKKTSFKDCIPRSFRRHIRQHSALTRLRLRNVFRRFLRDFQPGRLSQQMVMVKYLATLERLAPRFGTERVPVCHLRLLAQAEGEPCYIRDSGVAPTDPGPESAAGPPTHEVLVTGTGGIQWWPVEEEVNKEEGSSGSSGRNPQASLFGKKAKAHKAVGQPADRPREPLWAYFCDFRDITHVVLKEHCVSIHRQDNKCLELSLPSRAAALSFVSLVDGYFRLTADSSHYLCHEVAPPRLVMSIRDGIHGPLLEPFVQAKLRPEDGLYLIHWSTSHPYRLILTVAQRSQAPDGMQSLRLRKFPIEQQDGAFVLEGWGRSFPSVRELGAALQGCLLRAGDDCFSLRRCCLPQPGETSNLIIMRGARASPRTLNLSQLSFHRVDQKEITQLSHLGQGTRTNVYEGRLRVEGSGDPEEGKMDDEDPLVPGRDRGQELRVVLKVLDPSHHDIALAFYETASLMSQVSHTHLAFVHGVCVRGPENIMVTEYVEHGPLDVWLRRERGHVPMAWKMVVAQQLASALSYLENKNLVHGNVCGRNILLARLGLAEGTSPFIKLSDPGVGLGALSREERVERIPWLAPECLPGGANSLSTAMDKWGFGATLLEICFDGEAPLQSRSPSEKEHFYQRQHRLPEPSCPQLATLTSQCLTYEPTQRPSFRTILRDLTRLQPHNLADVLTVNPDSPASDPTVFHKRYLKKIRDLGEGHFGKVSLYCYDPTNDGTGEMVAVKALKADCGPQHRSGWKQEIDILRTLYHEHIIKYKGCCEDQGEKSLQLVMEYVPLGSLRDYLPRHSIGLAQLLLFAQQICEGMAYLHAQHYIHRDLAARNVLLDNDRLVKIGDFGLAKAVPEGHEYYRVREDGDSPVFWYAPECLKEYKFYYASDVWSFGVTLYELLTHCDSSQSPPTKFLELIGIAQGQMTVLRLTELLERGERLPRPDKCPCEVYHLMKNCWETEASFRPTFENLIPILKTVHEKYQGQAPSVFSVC
JH2 domain of human Tyk2, sequence (P29597 575-876): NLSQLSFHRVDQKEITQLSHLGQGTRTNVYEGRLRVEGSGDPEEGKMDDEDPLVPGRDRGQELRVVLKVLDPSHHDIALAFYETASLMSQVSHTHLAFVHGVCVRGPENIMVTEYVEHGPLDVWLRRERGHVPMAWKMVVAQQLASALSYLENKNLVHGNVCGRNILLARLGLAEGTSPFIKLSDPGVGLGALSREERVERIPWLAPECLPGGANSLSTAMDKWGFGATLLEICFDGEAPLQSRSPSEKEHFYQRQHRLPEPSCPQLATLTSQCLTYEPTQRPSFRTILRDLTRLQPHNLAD

SMILES	IC50 (JH2 domain of human Tyk2; [1])	IC50 (Tyk2; MSD)	IC50 (JH2 domain of human Tyk2; [2])	IC50 (JH2 domain of human Tyk2; [3])	IC50 (Tyk2)
Cc1cc(Nc2cc(NC(N)=O)ncc2-c2ccn(C)n2)nc(C(C)(F)F)n1 [Example 288, 1-(4-((2-(1,1-difluoroethyl)-6-methylpyrimidin-4-yl)amino)-5-(1-methyl-1H-pyrazol-3-yl)pyridin-2-yl)urea]	≤ 10 nM	≤ 10 nM			
CCOc1cnc(NC(C)=O)cc1Nc1cc(-c2cncc(OC)c2)nc(C(C)(F)F)n1 [Example 370, N-(4-((2-(1,1-difluoroethyl)-6-(5-methoxypyridin-3-yl)pyrimidin-4-yl)amino)-5-ethoxypyridin-2-yl)acetamide]		10 to 100 nM	≤ 10 nM		
CCc1cc(Nc2cc(NC(C)=O)ncc2-c2cnc(OC)cn2)nc(C(C)(F)F)n1 [Example 829, N-(4-((2-(1,1-difluoroethyl)-6-ethylpyrimidin-4-yl)amino)-5-(5-methoxypyrazin-2-yl)pyridin-2-yl)acetamide]				≤ 10 nM	10 to 100 nM
COc1cnc(NC(C)=O)cc1Nc1cc(-c2cccnc2)nc(C(C)(F)F)n1 [Example 388, N-(4-((2-(1,1-difluoroethyl)-6-(pyridin-3-yl)pyrimidin-4-yl)amino)-5-methoxypyridin-2-yl)acetamide]		10 to 100 nM	≤ 10 nM		
CC(=O)Nc1cc(Nc2ccnc(C(C)(F)F)n2)c(-c2cc(C)c(C#N)cn2)cn1 [Example 701, N-(5-cyanO4′-((2-(1,1-difluoroethyl)pyrimidin-4-yl)amino)-4-methyl-[2,3′-bipyridin]-6′-yl)acetamide]		≤ 10 nM	≤ 10 nM		
COC1CCN(c2cnc(-c3cnc(NC(C)=O)cc3Nc3ccnc(C(C)(F)F)n3)cn2)C1 (centres unmarked) [Example 867, N-(4-((2-(1,1-difluoroethyl)pyrimidin-4-yl)amino)-5-(5-(3-methoxypyrrolidin-1-yl)pyrazin-2-yl)pyridin-2-yl)acetamide]				≤ 10 nM	10 to 100 nM
CC(=O)Nc1cc(Nc2ccnc(C(C)(F)F)n2)c(-c2ncn(C)n2)cn1 [Example 165, N-(4-((2-(1,1-difluoroethyl)pyrimidin-4-yl)amino)-5-(1-methyl-1H-1,2,4-triazol-3-yl)pyridin-2-yl)acetamide]	10 to 100 nM	100 to 1000 nM			
CC(=O)Nc1cc(Nc2cc(C)nc(C(C)(C)F)n2)c(-c2cn3c(n2)COCC3)cn1 [Example 531, N-(5-(5,6-dihydrO8H-imidazo[2,1-c][1,4]oxazin-2-yl)-4-((2-(2-fluoropropan-2-yl)-6-methylpyrimidin-4-yl)amino)pyridin-2-yl)acetamide]		≤ 10 nM	≤ 10 nM		
CC(=O)Nc1cc(Nc2ccnc(C(C)(F)F)n2)c(-c2cnc(N3CC4(COC4)C3)cn2)cn1 [Example 888, N-(5-(5-(2-oxa-6-azaspiro[3.3]heptan-6-yl)pyrazin-2-yl)-4-((2-(1,1-difluoroethyl)pyrimidin-4-yl)amino)pyridin-2-yl)acetamide]				≤ 10 nM	100 to 1000 nM
COc1cnc(NC(C)=O)cc1Nc1cc(-c2cc(F)c3nc(C)cn3c2)nc(C(C)(F)F)n1 [Example 398, N-(4-((2-(1,1-difluoroethyl)-6-(8-fluoro-2-methylimidazo[1,2-a]pyridin-6-yl)pyrimidin-4-yl)amino)-5-methoxypyridin-2-yl)acetamide]		10 to 100 nM	≤ 10 nM		
CC(=O)Nc1cc(Nc2ccnc(C(C)(F)F)n2)c(-c2ccc(CN3C[C@@H]4C[C@H]3CO4)cn2)cn1 [Example 885, N-(5-(((1S,4S)-2-oxa-5-azabicyclo[2.2.1]heptan-5-yl)methyl)-4′-((2-(1,1-difluoroethyl)pyrimidin-4-yl)amino)-[2,3′-bipyridin]-6′-yl)acetamide]				≤ 10 nM	≤ 10 nM
CC(=O)Nc1cc(Nc2cc(C)nc(C(C)(F)F)n2)c(OC2CC2)cn1 [Example 45, N-(5-cyclopropoxy-4-((2-(1,1-difluoroethyl)-6-methylpyrimidin-4-yl)amino)pyridin-2-yl)acetamide]	≤ 10 nM	10 to 100 nM			
COCCOc1cnc(NC(C)=O)cc1Nc1nc(C)cc(C(F)CF)n1 (centres unmarked) [Example 80, N-(4-((4-(1,2-difluoroethyl)-6-methylpyrimidin-2-yl)amino)-5-(2-methoxyethoxy)pyridin-2-yl)acetamide]	10 to 100 nM	100 to 1000 nM			
CC(=O)Nc1cc(Nc2ccnc(C(C)(F)F)n2)c(-c2ncc(CN(C)C)s2)cn1 [Example 782, N-(4-((2-(1,1-difluoroethyl)pyrimidin-4-yl)amino)-5-(5-((dimethylamino)methyl)thiazol-2-yl)pyridin-2-yl)acetamide]				≤ 10 nM	≤ 10 nM
CC(=O)Nc1cc(Nc2cc(C)nc(C(C)(F)F)n2)c(-c2nccc(C)n2)cn1 [Example 671, N-(4-((2-(1,1-difluoroethyl)-6-methylpyrimidin-4-yl)amino)-5-(4-methylpyrimidin-2-yl)pyridin-2-yl)acetamide]		10 to 100 nM	≤ 10 nM		
CC(=O)Nc1cc(Nc2cc(C)nc(C(C)(F)F)n2)c(-c2csc(C)n2)cn1 [Example 606, N-(4-((2-(1,1-difluoroethyl)-6-methylpyrimidin-4-yl)amino)-5-(2-methylthiazol-4-yl)pyridin-2-yl)acetamide]		≤ 10 nM	≤ 10 nM		

SMILES	IC50 (JH2 domain of human Tyk2; [1])	IC50 (Tyk2; MSD)	IC50 (JH2 domain of human Tyk2; [2])	IC50 (JH2 domain of human Tyk2; [3])	IC50 (Tyk2)
COC(C)(C)c1cnc(-c2cnc(NC(C)=O)cc2Nc2ccnc(C(C)(F)F)n2)cn1 [Example 896, N-(4-((2-(1,1-difluoroethyl)pyrimidin-4-yl)amino)-5-(5-(2-methoxypropan-2-yl)pyrazin-2-yl)pyridin-2-yl)acetamide]				≤ 10 nM	10 to 100 nM
CC(=O)Nc1cc(Nc2cc(C)nc(C(C)(F)F)n2)c(OCC2CN(C)C2)cn1 [Example 506, N-(4-((2-(1,1-difluoroethyl)-6-methylpyrimidin-4-yl)amino)-5-((1-methylazetidin-3-yl)methoxy)pyridin-2-yl)acetamide]		100 to 1000 nM	≤ 10 nM		
CC(=O)Nc1cc(Nc2cc(C)nc(C(C)(F)F)n2)c(-c2cc(CN(C)C)ccn2)cn1 [Example 740, N-(4′-((2-(1,1-difluoroethyl)-6-methylpyrimidin-4-yl)amino)-4-((dimethylamino)methyl)-[2,3′-bipyridin]-6′-yl)acetamide]		≤ 10 nM	≤ 10 nM		
CCc1cc(Nc2cc(NC(C)=O)ncc2-c2cnc(NC)cn2)nc(C(C)(F)F)n1 [Example 860, N-(4-((2-(1,1-difluoroethyl)-6-ethylpyrimidin-4-yl)amino)-5-(5-(methylamino)pyrazin-2-yl)pyridin-2-yl)acetamide]				100 to 1000 nM	≥ 1000 nM
CC(=O)Nc1cc(Nc2cc(C)nc(C(C)(F)F)n2)c(OCc2cnc(C)o2)cn1 [Example 320, N-(4-((2-(1,1-difluoroethyl)-6-methylpyrimidin-4-yl)amino)-5-((2-methyloxazol-5-yl)methoxy)pyridin-2-yl)acetamide]	≤ 10 nM	10 to 100 nM			
COC(=O)Nc1cc(Nc2cc(OC3CC3)nc(C(C)(F)F)n2)c(OCCN(C)C)cn1 [Example 447, methyl (4-((6-cyclopropoxy-2-(1,1-difluoroethyl)pyrimidin-4-yl)amino)-5-(2-(dimethylamino)ethoxy)pyridin-2-yl)carbamate]		10 to 100 nM	≤ 10 nM		
CC(=O)Nc1cc(Nc2cc(C)nc(C(C)(F)F)n2)c(-c2cnc(C#N)cn2)cn1 [Example 838, N-(5-(5-cyanopyrazin-2-yl)-4-((2-(1,1-difluoroethyl)-6-methylpyrimidin-4-yl)amino)pyridin-2-yl)acetamide]				≤ 10 nM	10 to 100 nM
CC(=O)Nc1cc(Nc2ccnc(C(C)(F)F)n2)c(-c2nc3c(s2)COCC3)cn1 [Example 573, N-(4-((2-(1,1-difluoroethyl)pyrimidin-4-yl)amino)-5-(6,7-dihydrO4H-pyrano[4,3-d]thiazol-2-yl)pyridin-2-yl)acetamide]		≤ 10 nM	≤ 10 nM		
CC(=O)Nc1cc(Nc2ccnc(C(C)(F)F)n2)c(-c2cnc(C(C)(F)F)cn2)cn1 [Example 695, N-(5-(5-(1,1-difluoroethyl)pyrazin-2-yl)-4-((2-(1,1-difluoroethyl)pyrimidin-4-yl)amino)pyridin-2-yl)acetamide]		100 to 1000 nM	≤ 10 nM		
CC(=O)Nc1cc(Nc2cc(C)nc(C(C)(F)F)n2)c(-c2cc(CN3CCCC3)n(C)n2)cn1 [Example 803, N-(4-((2-(1,1-difluoroethyl)-6-methylpyrimidin-4-yl)amino)-5-(1-methyl-5-(pyrrolidin-1-ylmethyl)-1H-pyrazol-3-yl)pyridin-2-yl)acetamide]				≤ 10 nM	≤ 10 nM
CC(=O)Nc1cc(Nc2cc(C)nc(C(C)(F)F)n2)c(-c2cc(C)ncn2)cn1 [Example 197, N-(4-((2-(1,1-difluoroethyl)-6-methylpyrimidin-4-yl)amino)-5-(6-methylpyrimidin-4-yl)pyridin-2-yl)acetamide]	≤ 10 nM	≤ 10 nM			
CC(=O)Nc1cc(Nc2cc(C)nc(C(C)(F)F)n2)c(OCc2cnccc2C)cn1 [Example 470, N-(4-((2-(1,1-difluoroethyl)-6-methylpyrimidin-4-yl)amino)-5-((4-methylpyridin-3-yl)methoxy)pyridin-2-yl)acetamide]		100 to 1000 nM	≤ 10 nM		
COc1ccnc(COc2cnc(NC(C)=O)cc2Nc2cc(C)nc(C(C)(F)F)n2)n1 [Example 345, N-(4-((2-(1,1-difluoroethyl)-6-methylpyrimidin-4-yl)amino)-5-((4-methoxypyrimidin-2-yl)methoxy)pyridin-2-yl)acetamide]	10 to 100 nM	100 to 1000 nM			
CC(=O)Nc1cc(Nc2cc(C)nc(C(C)(F)F)n2)c(OC2CCOC2)cn1 (centres unmarked) [Example 477, N-(4-((2-(1,1-difluoroethyl)-6-methylpyrimidin-4-yl)amino)-5-((tetrahydrofuran-3-yl)oxy)pyridin-2-yl)acetamide]		10 to 100 nM	≤ 10 nM		
CC(=O)Nc1cc(Nc2cc(C)nc(C(C)(F)F)n2)c(-c2cc(OC(C)C)ncn2)cn1 [Example 242, N-(4-((2-(1,1-difluoroethyl)-6-methylpyrimidin-4-yl)amino)-5-(6-isopropoxypyrimidin-4-yl)pyridin-2-yl)acetamide]	≤ 10 nM	10 to 100 nM			
